The values that follow come from patent US12448388B2, “PRMT5 inhibitors and uses thereof” (Gilead Sciences, Inc., priority 2023, dated 2025).

Data set [1] deals with HCT116 MTAP-deleted cell lines. Put plainly: Cell viability assay (CellTiter-Glo, 7 days), HCT116 MTAP-deleted. In kind it is cell-based. More on the design: CC50 selectivity: unit not given beside the values. The gist of the method: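 Luminescent ATP readout (CellTiter-Glo) after 7 days of continuous compound exposure gives the CC50 value. Cells were plated onto pre-dispensed DMSO dilution series of the PRMT5 inhibitors and kept at 37 °C in 5% CO2.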

Data set [2] concerns Symmetric Di-methyl Arginine (SDMA) signal (PRMT5 inhibition) in HCT116 MTAP-deleted cells. Briefly: Symmetric di-methyl arginine image-based high content screen assay (SDMA assay), HCT116 MTAP-deleted. In kind it is cell-based. As to conditions: for EC50: class symbols. Here is the method:
Symmetric di-methyl arginine image-based high content screen assay (SDMA assay) was performed in HCT116 WT and HCT116 MTAP-deleted cell lines to measure Symmetric Di-methyl Arginine (SDMA) signal reduction after selective PRMT5 inhibition in the MTAP-deleted cells. Control compounds were analyzed in parallel each time for quality control.
Briefly, the same compound plates were generated as mentioned in the previous section of Cell viability assay on Day −1. On Day 0, 800 HCT WT or HCT116 MTAP-deleted cell were seeded in compound-containing 384 well plates (50 μl per well) in RPMI 1640 media supplemented with 10% heat inactivated fetal bovine serum, Glutamax and penicillin streptomycin using EL460 liquid dispenser 5 μl cassette (BioTek, part no. 7170011). After equilibrating the plate at room temperature, the cells were incubated for 3 days inside the sealed incubator set at 37° C. with 90% humidity and 5% C02.
On Day 3, the cells were fixed by adding 45 μl of 8% neutralized formalin solution to each well using EL460 liquid dispenser 5 μl cassette and the cells were incubated for 30 minutes at room temperature. The formalin solution was washed off with […] phosphate buffered saline (dPBS), the 0.1% Triton X-100 solution in dPBS was used to permeabilize the cells for 15 minutes at room temperature. The triton solution was aspirated, 50 μl of Odyssey Blocking buffer +0.05% Tween20 was added and the plate was incubated at room temperature for 30 minutes.
The blocking solution was removed, a 20 μl of SDMA antibody (Cell Signaling Technology, Cat no. 13222) diluted 1:500 in Odyssey Blocking buffer +0.05% Tween20 was added and the plate was incubated at 4° C. overnight. Next day, the primary SDME antibody solution was washed from each well three times with 0.05% Tween20 in dPBS (PBST).
A 30 μl of the secondary antibody, a Goat anti-Rabbit Alexa Fluor Plus 488 (Invitrogen, Cat no. PIA32731) was diluted 1:500 in Odyssey Blocking buffer +0.05% Tween20 and the plate was incubated for 1.5 hours in dark at room temperature. The secondary antibody solution was removed, 30 μl of 5 mg/ml DAPI solution diluted 1:2000 in dPBS was added and the plate was incubated for 30 minutes in dark at room temperature. The DAPI solution was aspirated and the wells were washed six times with dPBS.
The SDMA signal and DAPI signal per cell were counted using a Cellomics CX7 LZR instrument reading under 488 and 405 nm laser, respectively. The SDMA signal was quantified by mean average intensity per cell from Alexa Fluor Plus 488 after the cell was defined with DAPI. The EC50 values for each compound after 3 days of treatment were calculated using 4 parameter non-linear logistical curve fit.
For the SDMA assay i.e. EC50 shown in Table 3A: A: EC50≤1 nM, B: 1 nM<EC50≤5 nM, C: EC50>5 nM.

The mark [3] stands for this setting: Homo sapiens, HCT-116, cell viability assay, HCT116 MTAP-deleted, class symbols, read-out: CC50.
Setting [4] is: HCT116 WT vs HCT116 MTAP-deleted.
Where [5] appears, read: Homo sapiens, HCT-116, HCT116 MTAP-deleted.
The mark [6] stands for this setting: Homo sapiens, HCT-116, cell viability, HCT116 MTAP-deleted, class symbols, read-out: CC50.
[7] abbreviates: HCT116 WT versus HCT116 MTAP-deleted.

Structures are written as SMILES. Like-named read-outs stand apart in the source and are kept apart here.

`Cc1ncn2c1c(N)nc1ccc(C(=O)N(C)C3CCc4nc(C(F)(F)F)ccc43)cc12` (centres unmarked) [Fg-12, 4-amino-N,3-dimethyl-N-(2-(trifluoromethyl)-6,7-dihydro-5H-cyclopenta[b]pyridin-5-yl)imidazo[1,5-a]quinoxaline-8-carboxamide]: the half-maximal cytotoxic concentration (CC50) in data set [1] (setting [3]) was < 100 nM. The EC50 selectivity in data set [2] (setting [4]) is 168. Besides, the EC50 in data set [2] (setting [5]) was ≤ 1 nM.
Turning to `Nc1nc2cc(F)c(C(=O)N3CC[C@H]4C[C@@H]3c3ccc(C(F)(F)F)c(F)c3O4)cc2n2cncc12` [Ff-634, (4-amino-7-fluoroimidazo[1,5-a]quinoxalin-8-yl)((2S,6R)-10-fluoro-9-(trifluoromethyl)-3,4-dihydro-2H-2,6-methanobenzo[b][1,5]oxazocin-5(6H)-yl)methanone], the CC50 in data set [1] (setting [3]) is < 100 nM. For the same compound, the EC50 selectivity in data set [2] (setting [4]) worked out at 171. Besides, in data set [2] (setting [5]), the EC50 was ≤ 1 nM.
As for `Cc1ncc2c(N)nc3ccc(C(=O)N(C)[C@@H]4COc5cc(C#CC6(C)COC6)ccc54)cc3n12` [Ff-20, (S)-4-amino-N,1-dimethyl-N-(6-((3-methyloxetan-3-yl)ethynyl)-2,3-dihydrobenzofuran-3-yl)imidazo[1,5-a]quinoxaline-8-carboxamide], the half-maximal cytotoxic concentration (CC50) in data set [1] (setting [6]) is < 100 nM. This compound displayed an EC50 selectivity in data set [2] (setting [7]) of 382. Further, in data set [2] (setting [5]), the EC50 is 1 to 5 nM.
Consider `Nc1nc2cc(F)c(C(=O)N(Cc3ccc(C(F)(F)F)cn3)C34CC(C3)C4)cc2n2cncc12` [Ff-1, 4-amino-N-(bicyclo[1.1.1]pentan-1-yl)-7-fluoro-N-((5-(trifluoromethyl)pyridin-2-yl)methyl)imidazo[1,5-a]quinoxaline-8-carboxamide], for which, in data set [1] (setting [6]), the CC50 is < 100 nM. The EC50 selectivity in data set [2] (setting [7]) is given as 37. Besides, in data set [2] (setting [5]), the EC50 is ≤ 1 nM.
As for `Nc1nc2cc(F)c(C(=O)N(Cc3ccc(C(F)(F)F)cc3F)C34CC(C3)C4)cc2n2cncc12` [Ff-210, 4-amino-N-(bicyclo[1.1.1]pentan-1-yl)-7-fluoro-N-(2-fluoro-4-(trifluoromethyl)benzyl)imidazo[1,5-a]quinoxaline-8-carboxamide], the CC50 in data set [1] (setting [6]) is < 100 nM. This compound also gave an EC50 selectivity in data set [2] (setting [7]) of 45. Besides, the concentration for a half-maximal effect (EC50) in data set [2] (setting [5]) was ≤ 1 nM.
`Cc1ncc2c(N)nc3ccc(C(=O)N(Cc4ccc(C(F)(F)F)cn4)N(C)c4ncccn4)cc3n12` [Fa-2, 4-amino-N′,1-dimethyl-N′-pyrimidin-2-yl-N-[[5-(trifluoromethyl)-2-pyridyl]methyl]imidazo[1,5-a]quinoxaline-8-carbohydrazide]: the CC50 in data set [1] (setting [6]) is < 100 nM. In addition, in data set [2] (setting [7]), the EC50 selectivity turned out to be 17. Besides, in data set [2] (setting [5]), the EC50 was ≤ 1 nM.
As for `Nc1nc2cnc(C(=O)N3CCC[C@@H]4Oc5cc(S(F)(F)(F)(F)F)ccc5[C@@H]43)cc2n2cncc12` [Fg-42, (4-aminoimidazo[1,5-a]pyrido[3,4-e]pyrazin-8-yl)((4aS,9bS)-7-(pentafluoro-16-sulfaneyl)-3,4,4a,9b-tetrahydrobenzofuro[3,2-b]pyridin-1(2H)-yl)methanone], in data set [1], the CC50 was < 100 nM and the CC50 selectivity came out at 38. Further, the EC50 in data set [2] (HCT116 MTAP-deleted) is ≤ 1 nM. Also, the EC50 selectivity in data set [2] (setting [4]) worked out at 57.
Regarding `Cc1ncn2c1c(N)nc1cnc(C(=O)N3CC4(CC4)C[C@@H]4Oc5cc(C(F)(F)F)ccc5[C@@H]43)cc12` [Fg-36, (4-amino-3-methylimidazo[1,5-a]pyrido[3,4-e]pyrazin-8-yl)((4aS,9bS)-7-(trifluoromethyl)-4a,9b-dihydro-2H-spiro[benzofuro[3,2-b]pyridine-3,1′-cyclopropan]-1(4H)-yl)methanone], the CC50 in data set [1] (setting [3]) was < 100 nM.
Consider `C[C@@H]1COC[C@H](c2ccc(C(F)(F)F)cn2)N1C(=O)c1cc2c(cn1)nc(N)c1cncn12` [Ff-142, (4-aminoimidazo[1,5-a]pyrido[3,4-e]pyrazin-8-yl)((3R,5S)-3-methyl-5-(5-(trifluoromethyl)pyridin-2-yl)morpholino)methanone], for which the CC50 in data set [1] (setting [6]) is < 100 nM.
For the compound `C[C@H]1CN(C(=O)c2cc3c(cc2F)nc(N)c2cncn23)[C@H]2c3ccc(C(F)F)c(F)c3C[C@H]2O1` (single isomer, unassigned) [Ff-171], the CC50 in data set [1] (setting [6]) was < 100 nM.
As to `Cc1ncc2c(N)nc3cnc(C(=O)N4C(C)CCC5Oc6cc(C(F)(F)F)ccc6C54)cc3n12` (racemic) [Ff-586, Rac-(4-amino-1-methylimidazo[1,5-a]pyrido[3,4-e]pyrazin-8-yl)(2-methyl-7-(trifluoromethyl)-3,4,4a,9b-tetrahydrobenzofuro[3,2-b]pyridin-1(2H)-yl)methanone], the CC50 in data set [1] (setting [3]) is < 100 nM.
`CN(C(=O)c1cc2c(cc1F)nc(N)c1cncn12)[C@@H]1COc2cc(C#CC3(C#N)CC3)ccc21` [Ff-445, 4-amino-N-[(3S)-6-[2-(1-cyanocyclopropyl)ethynyl]-2,3-dihydrobenzofuran-3-yl]-7-fluoro-N-methyl-imidazo[1,5-a]quinoxaline-8-carboxamide]: the CC50 in data set [1] (setting [3]) was < 100 nM.
Consider `Nc1nc2cc(F)c(C(=O)N(Cc3ccc(C(F)(F)F)cc3F)c3ncco3)cc2n2cncc12` [Ff-226, 4-amino-7-fluoro-N-(2-fluoro-4-(trifluoromethyl)benzyl)-N-(oxazol-2-yl)imidazo[1,5-a]quinoxaline-8-carboxamide], for which the CC50 in data set [1] (setting [6]) is < 100 nM.
Turning to `CC(C)N(Cc1ccc(-c2cnn(C(F)F)c2)cc1F)C(=O)c1ccc2nc(N)c3cncn3c2c1` [Ff-51, 4-amino-N-(4-(1-(difluoromethyl)-1H-pyrazol-4-yl)-2-fluorobenzyl)-N-isopropylimidazo[1,5-a]quinoxaline-8-carboxamide], the CC50 in data set [1] (setting [6]) was in the range of 100 to 1000 nM.
Regarding `CN(C(=O)c1cc2c(cc1F)nc(N)c1cncn12)[C@@H]1COc2cc(C3(C)CC3(F)F)ccc21` (stereo partly drawn) [Ff-575, 4-amino-N-((3S)-6-(2,2-difluoro-1-methylcyclopropyl)-2,3-dihydrobenzofuran-3-yl)-7-fluoro-N-methylimidazo[1,5-a]quinoxaline-8-carboxamide], in data set [1] (setting [3]), the 50% cytotoxic concentration (CC50) was < 100 nM.
As for `CN(C(=O)c1cc2c(cc1F)nc(N)c1cncn12)[C@@H]1COc2cc(C3CC3)ccc21` [Ff-546, (S)-4-amino-N-(6-cyclopropyl-2,3-dihydrobenzofuran-3-yl)-7-fluoro-N-methylimidazo[1,5-a]quinoxaline-8-carboxamide], the CC50 in data set [1] (setting [3]) is < 100 nM.
As to `CN(C(=O)c1cc2c(cc1F)nc(N)c1cncn12)[C@@H]1COc2cc(C#CC3(CC#N)CC3)ccc21` [Ff-441, 4-amino-N-[(3S)-6-[2-[1-(cyanomethyl)cyclopropyl]ethynyl]-2,3-dihydrobenzofuran-3-yl]-7-fluoro-N-methyl-imidazo[1,5-a]quinoxaline-8-carboxamide], in data set [1] (setting [3]), the CC50 was < 100 nM.
Regarding `Nc1nc2ccc(C(=O)N(Cc3ccc(C(F)(F)F)cc3F)C34CC(C3)C4)cc2n2cncc12` [Ff-202, 4-amino-N-(bicyclo[1.1.1]pentan-1-yl)-N-(2-fluoro-4-(trifluoromethyl)benzyl)imidazo[1,5-a]quinoxaline-8-carboxamide], the CC50 in data set [1] (setting [6]) was in the range of 100 to 1000 nM.
As for `C[C@H](c1ccc(C(F)(F)F)cn1)N(C(=O)c1cc2c(cc1F)nc(N)c1cncn12)C1CC1` [Ff-153, (R)-4-amino-N-cyclopropyl-7-fluoro-N-(1-(5-(trifluoromethyl)pyridin-2-yl)ethyl)imidazo[1,5-a]quinoxaline-8-carboxamide], in data set [1] (setting [6]), the CC50 was < 100 nM.
`Cn1ccc(N(Cc2ccc(C(F)(F)F)cn2)C(=O)c2cc3c(cc2F)nc(N)c2cncn23)n1` [Ff-306, 4-amino-7-fluoro-N-(1-methyl-1H-pyrazol-3-yl)-N-((5-(trifluoromethyl)pyridin-2-yl)methyl)imidazo[1,5-a]quinoxaline-8-carboxamide]: in data set [1] (setting [6]), the CC50 is < 100 nM.
